What was measured:
MM432 = assay: Cytotoxicity assay, primary mesothelioma MM432; assay type: cell-based, Human; details: Homo sapiens; sarcomatoid, 72 h, SBR assay; read-out: IC50 ± SD MM432
REC-1 = assay: Cytotoxicity assay (MTT, 72 h) REC-1; assay type: cell-based; details: Homo sapiens, Rec1, read-out: IC50 ± SD REC-1

CC[C@@]1(O)C(=O)OCc2c1cc1n(c2=O)Cc2c-1nc1ccc(O)cc1c2C=NOCCCCCC(=O)NO [Compound 3d, 6-(10-hydroxycamptothecin-7-ylmethyleneaminooxy)-hexanoic acid hydroxyamide]
IC50 (MM432): 0.16 ± 0.03 µM | IC50 (REC-1): 0.18 ± 0.04 µM
